Measured values taken from patent US20230233576A1, “ECLITASERTIB FOR USE IN TREATING CONDITIONS INVOLVING SYSTEMIC HYPERINFLAMMATORY RESPONSE” (priority 2020, published 2023).

Test system: laboratory markers of severe COVID-19 (D-dimer, leukocytes, lymphocytes, neutrophil to lymphocyte ratio, ferritin, LDH)
Assay: Phase 1b severe COVID-19 study: laboratory markers of severe COVID-19
Type: in vivo, human
Conditions: for D-Dimer relative change from baseline, RIPK1 Inhibitor vs placebo, point estimate / Ferritin relative change from baseline, RIPK1 Inhibitor vs placebo, point estimate / Lactate Dehydrogenase relative change from baseline, RIPK1 Inhibitor vs placebo, point estimate / Leukocytes relative change from baseline, RIPK1 Inhibitor vs placebo, point estimate / Lymphocytes relative change from baseline, RIPK1 Inhibitor vs placebo, point estimate / Neutrophils/Lymphocytes (RATIO) relative change from baseline, RIPK1 Inhibitor vs placebo, point estimate: MMRM; for D-Dimer relative change from baseline, RIPK1 Inhibitor vs placebo, point estimate / Ferritin relative change from baseline, RIPK1 Inhibitor vs placebo, point estimate / Lactate Dehydrogenase relative change from baseline, RIPK1 Inhibitor vs placebo, point estimate / Leukocytes relative change from baseline, RIPK1 Inhibitor vs placebo, point estimate / Lymphocytes relative change from baseline, RIPK1 Inhibitor vs placebo, point estimate / Neutrophils/Lymphocytes (RATIO) relative change from baseline, RIPK1 Inhibitor vs placebo, point estimate / D-Dimer: point estimate of the relative change from baseline (geometric mean) / D-Dimer: point estimate of the relative change from baseline displayed as percent change / Ferritin: point estimate of the relative change from baseline (geometric mean) / Ferritin: point estimate of the relative change from baseline displayed as percent change / Lactate Dehydrogenase: point estimate of the relative change from baseline (geometric mean) / Lactate Dehydrogenase: point estimate of the relative change from baseline displayed as percent change / Leukocytes: point estimate of the relative change from baseline (geometric mean) / Leukocytes: point estimate of the relative change from baseline displayed as percent change / Lymphocytes: point estimate of the relative change from baseline (geometric mean) / Lymphocytes: point estimate of the relative change from baseline displayed as percent change / Neutrophils/Lymphocytes (RATIO): point estimate of the relative change from baseline (geometric mean) / Neutrophils/Lymphocytes (RATIO): point estimate of the relative change from baseline displayed as percent change: LOCF, Efficacy population
Text: For clinical assessment, the variables associated with endpoints were: • main inflammatory marker CRP • Oxygenation saturation and oxygen delivery (e.g. SpO2, SpO2/FiO2), Laboratory markers of severe COVID-19 including D-dimer, lactate dehydrogenase (LDH), ferritin and hematology laboratory (white blood cell count, differential blood lymphocytes, neutrophil to lymphocyte ratio) • Clinical status of participant (7-point ordinal scale) • Thrombolytic and vasopressor treatments
Other secondary clinical assessment endpoints included: • Number of Days without need for oxygen support and alive (oxygen saturation≥92% breathing room air) up to Day 28 • Numbers of Ventilator-free days and alive up to Day 28 • Change from baseline in markers of inflammation (White blood cell count, differential blood lymphocytes, neutrophil to lymphocyte ratio, IL-6) and D-Dimer at Day 7 and EOT • Incidence of Deaths up to Day 28 • Percentage of participants receiving thrombolytic treatment up to Day 28 • Percentage of participants receiving vasopressor treatment up to Day 28 • Numbers of Respiratory Failure-Free Days (RFFD) and alive up to Day 28
Exploratory clinical assessments endpoints included: • Change from baseline in ferritin and LDH at Day 7 and EOT • Proportion of participants per category of the 7-point clinical scale at EOT • Time to improvement by 2 points in category of 7-point clinical scale • Quantitative SARS-COV-2 viral load in blood at baseline and on Day 3, 5, 7 and EOT
The relative changes from baseline in laboratory markers of severe COVID-19 were analyzed for the two treatment groups and for the treatment comparison of RIPK1 Inhibitor versus placebo, at Day 7 and EOT (Table 22, Table 23, Table 24). See also FIGS. 14, 15, 16, 17, 18, and 19.

## CN1C(=O)[C@@H](NC(=O)c2nnc(Cc3ccccc3)[nH]2)COc2cccnc21 [RIPK1 Inhibitor, (S)-5-benzyl-N-(5-methyl-4-oxo-2,3,4,5-tetrahydropyrido[3,2-b][1,4]oxazepin-3-yl)-4H-1,2,4-triazole-3-carboxamide]
600 mg, Day 7
  D-Dimer relative change from baseline, RIPK1 Inhibitor vs placebo, point estimate: 0.88
  Ferritin relative change from baseline, RIPK1 Inhibitor vs placebo, point estimate: 0.96
  Lactate Dehydrogenase relative change from baseline, RIPK1 Inhibitor vs placebo, point estimate: 0.80
  Leukocytes relative change from baseline, RIPK1 Inhibitor vs placebo, point estimate: 0.87
  Lymphocytes relative change from baseline, RIPK1 Inhibitor vs placebo, point estimate: 1.02
  Neutrophils/Lymphocytes (RATIO) relative change from baseline, RIPK1 Inhibitor vs placebo, point estimate: 0.65
600 mg, Day 7 and EOT
  difference with RIPK1 Inhibitor versus placebo for ferritin: No differences
600 mg, EOT
  D-Dimer relative change from baseline, RIPK1 Inhibitor vs placebo, point estimate: 1.07
  Ferritin relative change from baseline, RIPK1 Inhibitor vs placebo, point estimate: 0.98
  Lactate Dehydrogenase relative change from baseline, RIPK1 Inhibitor vs placebo, point estimate: 0.85
  Leukocytes relative change from baseline, RIPK1 Inhibitor vs placebo, point estimate: 1.03
  Lymphocytes relative change from baseline, RIPK1 Inhibitor vs placebo, point estimate: 1.03
  Neutrophils/Lymphocytes (RATIO) relative change from baseline, RIPK1 Inhibitor vs placebo, point estimate: 0.67
Day 03
  D-Dimer: point estimate of the relative change from baseline (geometric mean): 1.00
  D-Dimer: point estimate of the relative change from baseline displayed as percent change: −0.31%
  Ferritin: point estimate of the relative change from baseline (geometric mean): 3.43
  Ferritin: point estimate of the relative change from baseline displayed as percent change: 242.68%
  Lactate Dehydrogenase: point estimate of the relative change from baseline (geometric mean): 2.42
  Lactate Dehydrogenase: point estimate of the relative change from baseline displayed as percent change: 141.68%
  Leukocytes: point estimate of the relative change from baseline (geometric mean): 6.10
  Leukocytes: point estimate of the relative change from baseline displayed as percent change: 509.93%
  Lymphocytes: point estimate of the relative change from baseline (geometric mean): 1.35
  Lymphocytes: point estimate of the relative change from baseline displayed as percent change: 34.70%
  Neutrophils/Lymphocytes (RATIO): point estimate of the relative change from baseline (geometric mean): 2.01
  Neutrophils/Lymphocytes (RATIO): point estimate of the relative change from baseline displayed as percent change: 100.80%
Day 05
  D-Dimer: point estimate of the relative change from baseline (geometric mean): 1.04
  D-Dimer: point estimate of the relative change from baseline displayed as percent change: 4.10%
  Ferritin: point estimate of the relative change from baseline (geometric mean): 2.91
  Ferritin: point estimate of the relative change from baseline displayed as percent change: 191.34%
  Lactate Dehydrogenase: point estimate of the relative change from baseline (geometric mean): 2.23
  Lactate Dehydrogenase: point estimate of the relative change from baseline displayed as percent change: 122.59%
  Leukocytes: point estimate of the relative change from baseline (geometric mean): 6.14
  Leukocytes: point estimate of the relative change from baseline displayed as percent change: 513.77%
  Lymphocytes: point estimate of the relative change from baseline (geometric mean): 1.43
  Lymphocytes: point estimate of the relative change from baseline displayed as percent change: 42.51%
  Neutrophils/Lymphocytes (RATIO): point estimate of the relative change from baseline (geometric mean): 1.89
  Neutrophils/Lymphocytes (RATIO): point estimate of the relative change from baseline displayed as percent change: 89.49%
Day 07
  D-Dimer: point estimate of the relative change from baseline (geometric mean): 0.96
  D-Dimer: point estimate of the relative change from baseline displayed as percent change: −3.52%
  Ferritin: point estimate of the relative change from baseline (geometric mean): 2.80
  Ferritin: point estimate of the relative change from baseline displayed as percent change: 179.61%
  Lactate Dehydrogenase: point estimate of the relative change from baseline (geometric mean): 2.10
  Lactate Dehydrogenase: point estimate of the relative change from baseline displayed as percent change: 110.26%
  Leukocytes: point estimate of the relative change from baseline (geometric mean): 6.15
  Leukocytes: point estimate of the relative change from baseline displayed as percent change: 514.60%
  Lymphocytes: point estimate of the relative change from baseline (geometric mean): 1.52
  Lymphocytes: point estimate of the relative change from baseline displayed as percent change: 51.69%
  Neutrophils/Lymphocytes (RATIO): point estimate of the relative change from baseline (geometric mean): 1.74
  Neutrophils/Lymphocytes (RATIO): point estimate of the relative change from baseline displayed as percent change: 74.47%
Day 15
  D-Dimer: point estimate of the relative change from baseline (geometric mean): 0.96
  D-Dimer: point estimate of the relative change from baseline displayed as percent change: −3.71%
  Ferritin: point estimate of the relative change from baseline (geometric mean): 2.66
  Ferritin: point estimate of the relative change from baseline displayed as percent change: 166.34%
  Lactate Dehydrogenase: point estimate of the relative change from baseline (geometric mean): 2.05
  Lactate Dehydrogenase: point estimate of the relative change from baseline displayed as percent change: 104.58%
  Leukocytes: point estimate of the relative change from baseline (geometric mean): 6.60
  Leukocytes: point estimate of the relative change from baseline displayed as percent change: 560.21%
  Lymphocytes: point estimate of the relative change from baseline (geometric mean): 1.63
  Lymphocytes: point estimate of the relative change from baseline displayed as percent change: 63.48%
  Neutrophils/Lymphocytes (RATIO): point estimate of the relative change from baseline (geometric mean): 1.66
  Neutrophils/Lymphocytes (RATIO): point estimate of the relative change from baseline displayed as percent change: 65.55%
